Measurements as given in publication PMC12020424, “Identification and Validation of Cyclic Peptides with Mucin-Selective, Location-Specific Binding in the Gastrointestinal Tract” (ACS Nano, 2025).
pKd: −log10 of the molar value. Values joined by “and” are separate entries in the source; they are usually repeats but may differ in a detail not shown here. Equal values may be shown once. Read-outs that look alike come from different tables or passages of the source. Bridge positions count the residues as written; N and C are the ends. Peptide text beside a SMILES is read from it.

Columns and labels:
[1] = molecular target: MUC5AC (Homo sapiens, UniProt P98088); test: Biolayer interferometry binding kinetics, MUC5AC; conditions: for pKd: PBS-HCl pH 1.82, koff/kon, read-out: dissociation constant kd
Description: (§1) Binding kinetics for the successful mucin-binding hits were measured using biolayer interferometry (BLI).[73] In BLI, a protein target is immobilized on the surface of a biosensor, creating a thin optical layer. These coated sensors are then exposed to a solution of the ligand (in this case, the small molecule and peptide hits), allowing the ligand to associate and dissociate with the protein target. This association/dissociation behavior changes the thickness of the optical layer, and the instrument correlates this change in thickness with binding and desorption. By testing different concentrations of the ligand, the kinetic rate constants and dissociation constant (kd) can be measured by fitting the resulting binding curves according to a binding model.[73]
(§2) For the analysis of mucin-binding kinetics, mucins MUC2 and MUC5AC were used as the protein targets, and the “hits” were used as the ligands of interest. Mucins were biotinylated and suspended in buffers with different pH levels (MUC2 in PBS with pH 7.2 and PBS-HCl with pH 3.35, MUC5AC in PBS-HCl with pH 1.82) that mimic the pH of the normal small intestine,[74] the small intestine during inflammatory bowel disease,[75] and the normal stomach,[76] respectively. Hits were dissolved in the same buffer to minimize the optical differences among the buffer, mucin solution, and analyte solution. BLI was carried out on an Octet RED96 platform in five steps. First, a baseline step of 60 s was carried out. Then, biotinylated mucins were immobilized onto the surface of a streptavidin sensor during a loading step of 300 s. Next, the loaded tips were allowed to re-equilibrate in another baseline step for 60 s. Following that, the loaded tips were allowed to incubate in a solution of analyte (an association step) for 300 s; this allowed the hits to interact with the mucin, changing the thickness of the optical layer and generating a response from the optical measurement. Finally, the tips were moved to buffer wells, and the hits were allowed to dissociate from the mucin for 300 s. Data were analyzed, and ligand-only and hit-only controls were used as references to properly characterize the binding performance of the hits.
(§3) Binding of the hits to the mucins generally follows one of two different mechanisms. The first is a 1:1 bimolecular model in which the molecule binds to a specific spot on the mucin. The reaction can, therefore, be described using the following model:[77] [drawing 3]
(§4) In this model, kon represents the rate of association of the hit to the mucin, while koff represents the rate of dissociation of the molecule from the molecule-mucin complex. The dissociation constant is calculated as the ratio of these two rate constants.
(§5) The second model is a 2:1 heterogeneous model, in which the molecule binds at two locations on the mucin (each with its own kinetic rate constants and dissociation constant).[78] These reactions are described using the following model: [drawing 4]
(§6) The rate constants for each interaction are equivalent to those of the single interaction present in the 1:1 model, while each interaction has its own dissociation constant. This was calculated similarly to the 1:1 model.

[2] = molecular target: MUC2 (Homo sapiens, UniProt Q02817); test: Biolayer interferometry binding kinetics, MUC2; conditions: Octet RED96, biotinylated MUC2 on streptavidin sensor; for pKd: PBS pH 7.2, koff/kon, read-out: dissociation constant kd; for kon: PBS pH 7.2, association 300 s, dissociation 300 s
Description: as §1, §2, §3, §4, §5, §6

[3] = test system: MUC5AC-containing stomach tissue; test: Ex vivo fluorescent binding to stomach tissue; design: species or system porcine; conditions: MUC5AC-selective peptides to stomach, scaled between free AF647 (0) and WGA-AF647 (1), mean across trials n = 3
Excerpt: (§7) After identifying the peptide hits for each mucin, we tested their binding in an ex vivo setting (Figure S1), evaluating their interaction with mucin-containing porcine tissue and semiquantitatively representing it through fluorescent imaging (Figure 3a). The cyclic peptides were synthesized and conjugated to a fluorophore, Alexa Fluor 647 (AF647), at the N-terminus to allow fluorescent imaging to be used to semiquantitatively measure the peptides’ ex vivo tissue binding, compared to free AF647 and AF647 conjugated to wheat germ agglutinin (WGA), a known lectin for glycoproteins.[40] […] Porcine GI tissue was used due to its similarity in mucin expression compared to human GI tissue and its capacity to source large surface areas of tissue for experiments.[41],[42] Representative IVIS images are shown in Figure 3b-e, where the first four columns represent the four identified peptides (M2.1–M2.4 in Figure 3b,c, M5.1–M5.4 in Figure 3d,e), the fifth column represents WGA-AF647, and the sixth column represents AF647. The “score” results for the peptide ligands are presented in Figure 3f,g for the mucins of interest, with Tables S2–S5 and Figure S3 detailing results for the other tissues (the equation for calculating the “score” is found in the Materials and Methodssection). […] We also examined selectivity by incubating peptides on nontarget tissues. Figure 3h,i depicts the “selectivity” results for the MUC2-selective and MUC5AC-selective peptides, respectively. Selectivity was calculated by determining the ratio of the “score” for a particular mucin to the sum of the “scores” for all mucins (see the Materials and Methods section for the equation used).
The top-performing hits from phage display were tested on ex vivo segments of porcine mucin-containing tissues (jejunal, stomach, and esophageal tissues) obtained from local abattoirs or laboratory-maintained pigs. Tissue was used either immediately after acquisition or after storage at −80 °C; tissue was used at most 1 week after acquisition and storage at −80 °C. After acquisition and equilibration to room temperature, the tissue was washed twice with 25 mL (each) of cold 1× PBS to remove undigested food and other debris. After washing and cleaning, the tissue was mounted between two magnetic plates with holes corresponding to a 48-well plate, as previously described,[72] such that the luminal side of the tissue was facing up (Figure S1). After the tissue was mounted, the amount of peptide/protein corresponding to 40 μg of AF647 was suspended in 200 μL of 1× PBS and added to the wells created by the magnetic plates. This was done 3× for each formulation to perform the experiment in triplicate. In addition, plain 1× PBS was added to one well to serve as the background measurement. […] After washing was complete, fluorescence imaging was performed using an IVIS Spectrum fluorescent imaging system (PerkinElmer), with an automatically calculated exposure time (usually ∼1 s), a 20 cm × 20 cm field of view, and an excitation/emission of 640/680 nm, respectively. The imaging results were analyzed using Living Image software to calculate the total fluorescence intensity for each well, and the results for each hit or control were averaged across different wells. […]
(§8) To better account for tissue-to-tissue variability, the results for each trial were reported as scores rather than using the raw fluorescence intensity. […]

[4] = test system: MUC2-containing intestinal tissue (jejunal); test: Ex vivo fluorescent binding to small intestine tissue; design: species or system porcine; conditions: MUC2-selective peptides to small intestine, scaled between free AF647 (0) and WGA-AF647 (1), mean across trials n = 3
Excerpt: as §7
The top-performing hits from phage display were tested on ex vivo segments of porcine mucin-containing tissues (jejunal, stomach, and esophageal tissues) obtained from local abattoirs or laboratory-maintained pigs. Tissue was used either immediately after acquisition or after storage at −80 °C; tissue was used at most 1 week after acquisition and storage at −80 °C. After acquisition and equilibration to room temperature, the tissue was washed twice with 25 mL (each) of cold 1× PBS to remove undigested food and other debris. After washing and cleaning, the tissue was mounted between two magnetic plates with holes corresponding to a 48-well plate, as previously described,[72] such that the luminal side of the tissue was facing up (Figure S1). After the tissue was mounted, the amount of peptide/protein corresponding to 40 μg of AF647 was suspended in 200 μL of 1× PBS and added to the wells created by the magnetic plates. This was done 3× for each formulation to perform the experiment in triplicate. In addition, plain 1× PBS was added to one well to serve as the background measurement. After the peptides were added, the plate setup was covered with aluminum foil and allowed to incubate for 1 h at room temperature with gentle agitation (50 rpm). After incubation, the nonbinding peptides were removed by pouring out the solutions onto a clean paper towel, and the setup was washed three times by adding 200 μL of 1× PBS to each well and gently agitating the setup for 30 s before removing the washing solution. After washing was complete, fluorescence imaging was performed using an IVIS Spectrum fluorescent imaging system (PerkinElmer), with an automatically calculated exposure time (usually ∼1 s), a 20 cm × 20 cm field of view, and an excitation/emission of 640/680 nm, respectively. The imaging results were analyzed using Living Image software to calculate the total fluorescence intensity for each well, and the results for each hit or control were averaged across different wells. The negative control used was unconjugated AF647, while the positive control was WGA-AF647, since WGA is a known lectin that binds glycoproteins.
as §8

[5] = BLI, Octet RED96, biotinylated MUC5AC on streptavidin sensor

| Compound | pKd [1, 5] | pKd ([2]; BLI) | other results |
| --- | --- | --- | --- |
| C[C@@H]1NC(=O)[C@H](CCCNC(=N)N)NC(=O)[C@H](CC(=O)O)NC(=O)[C@@H]2CCCN2C(=O)[C@H](CCCNC(=N)N)NC(=O)CNC(=O)[C@H](CC(=O)O)NC(=O)[C@@H](N)CSSC[C@@H](C(=O)O)NC1=O [Peptide M2.3] (H-CDGRPDRAC-OH; disulfide 1-9) | 7.18 | 8.15 |  |
| CC(C)C[C@@H]1NC(=O)[C@H](CO)NC(=O)[C@H](CO)NC(=O)[C@H](C)NC(=O)[C@@H](N)CSSC[C@@H](C(=O)O)NC(=O)[C@H](CCCNC(=N)N)NC(=O)[C@H](C(C)C)NC(=O)[C@H](CO)NC1=O [Peptide M2.4] (H-CASSLSVRC-OH; disulfide 1-9) |  | 6.95 | kon ([1]; pH 1.82, BLI, Octet RED96, biotinylated MUC5AC on streptavidin sensor, PBS-HCl pH 1.82, association 300 s, dissociation 300 s): 29500 M⁻¹ s⁻¹; kon ([2]; pH 7.2, BLI, read-out: kon): 57700 M⁻¹ s⁻¹ |
| Alexa Fluor 647 [Free dye, reference compound] |  |  | Overall nanoparticle “score” [3]: 0; Overall nanoparticle “score” [4]: 0 |

Second part, led by results:

| pKd [1, 5] | pKd ([2]; BLI) | Compound | other results |
| --- | --- | --- | --- |
| 8.10 | 6.95 | CC[C@H](C)[C@@H]1NC(=O)[C@@H]2CCCN2C(=O)CNC(=O)[C@@H](N)CSSC[C@@H](C(=O)O)NC(=O)[C@H](CC(C)C)NC(=O)[C@H](C)NC(=O)[C@H]([C@@H](C)O)NC(=O)[C@H](Cc2ccc(O)cc2)NC1=O [Peptide M5.2] (H-CGPIYTALC-OH; disulfide 1-9) | kd for MUC5AC binding compared with MUC2 binding (stronger) ([1]; BLI, MUC5AC pH 1.82 vs MUC2): 2 orders of magnitude |
| 8.81 |  | CSCC[C@@H]1NC(=O)CNC(=O)[C@H](CCSC)NC(=O)[C@H]([C@@H](C)O)NC(=O)[C@H](CC(C)C)NC(=O)[C@H](C)NC(=O)[C@H]([C@@H](C)O)NC(=O)[C@@H](N)CSSC[C@@H](C(=O)O)NC1=O [Peptide M5.3] (H-CTALTMGMC-OH; disulfide 1-9) | kon ([2]; BLI): 6.33 × 10^4 M^–1s^–1 and ~10^4 M^–1s^–1 |
